From patent US9000175B2, “Bicyclic GPR119 modulators” (Lupin Limited, priority 2010, dated 2015)
Where “and” joins values, the source holds several entries; their conditions need not be identical. Identical values can stand only once.

What follows are compounds tested against T1, human GPR119 (Homo sapiens, UniProt Q8TDV5) (assay: Cyclic AMP assay in stable cell line). Conditions: CHO-K1 cells stably transfected with human GPR119; cAMP levels (FRET, cAMP femto kit); 1 h at 37° C; read-out: EC50 Range.
T1 construct: expressed in transfected cells
T1 sequence (Q8TDV5 1-335): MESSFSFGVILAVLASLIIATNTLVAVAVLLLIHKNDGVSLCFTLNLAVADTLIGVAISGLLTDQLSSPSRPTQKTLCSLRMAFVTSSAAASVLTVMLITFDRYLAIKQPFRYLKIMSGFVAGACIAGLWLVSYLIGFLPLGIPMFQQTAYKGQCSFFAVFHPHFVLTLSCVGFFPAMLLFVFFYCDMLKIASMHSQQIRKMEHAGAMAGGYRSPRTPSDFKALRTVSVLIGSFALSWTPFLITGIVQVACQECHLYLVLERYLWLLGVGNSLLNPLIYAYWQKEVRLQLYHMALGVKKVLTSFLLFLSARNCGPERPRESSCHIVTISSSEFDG
Assay type: cell-based
Experimental: Cyclic AMP Assay in Stable Cell Line:
Chinese Hamster Ovary (CHO-K1) cells were stably transfected with human GPR119 and were maintained in Ham's F-12 complete medium containing 10% heat inactivated FBS (Sigma, UK). The cells were maintained under a selection pressure with 500 μg/ml G418 (GENETICIN). Stable clones were analyzed for functional cAMP response to OEA (oleoylethanolamide).
To estimate activation of GPR119 and induction of cAMP levels by GPR119 agonists, cells were serum starvation for 18-24 h, trypsinized and seeded in 96 well plates at a, density of 7500 cells/well. The cells were then treated with test compounds diluted in serum free Ham's F12 for 1 h at 37° C. The cAMP levels were measured by using the cAMP femto kit (CisBio) by following the manufacturer's instructions. Following treatment with a test compound, the cells were lysed and cAMP levels were estimated by adding D2-labelled cAMP and europium-cryptate conjugated anti-cAMP antibody. Close proximity of D2 and cryptate results in FRET and the subsequent fluorescence that is measured at 665 and 620 nm. The FRET response is calculated as the ratio of fluorescence at 665 to fluorescence at 620 nm. The unlabelled cAMP produced as a result of GPR119 activation/agonism competes with the D2-cAMP leading to a decrease in the FRET signal. Thus the FRET signal is inversely proportional to the amount of cAMP produced by the treated cells. In a separate set of wells, known concentrations of cAMP were added in order to get a standard linear curve for extrapolation of the cAMP values in the unknown/test samples. Fluorescence was measured on BMG Labtech PHERAstar machine.
The concentration of compound required to stimulate a half-maximal response (EC50) was determined using the GraphPad Prism software.
The compounds prepared were tested using the above assay procedure and the results obtained are given below.

Row | EC50 | SMILES
1 | < 50 nM | CC(C)(C)OC(=O)N1CCC(Oc2ccc(-n3ccc4cc(S(C)(=O)=O)ccc43)nc2)CC1 [Example-1, tert-Butyl-4-((6-(5-(methylsulfonyl)-1H-indol-1-yl)pyridin-3-yl)oxy) piperidine-1-carboxylate]
2 | < 50 nM | CCc1cnc(N2CCC(Oc3ccc(-n4ccc5cc(S(C)(=O)=O)ccc54)nc3)CC2)nc1 [Example-2, 1-(5-((1-(5-Ethylpyrimidin-2-yl)piperidin-4-yl)oxy)pyridin-2-yl)-5-(methylsulfonyl)-1H-indole]
3 | < 50 nM | CC(C)c1noc(N2CCC(Oc3ccc(-n4ccc5cc(S(C)(=O)=O)ccc54)nc3)CC2)n1 [Example-4, 3-Isopropyl-5-(4-((6-(5-(methylsulfonyl)-1H-indol-1-yl)pyridin-3-yl)oxy)piperidin-1-yl)-1,2,4-oxadiazole]
4 | < 50 nM | CC(C)(C)OC(=O)N1CCC(COc2ccc(-n3ccc4cc(S(C)(=O)=O)ccc43)nc2)CC1 [Example-5, tert-Butyl-4-(((6-(5-(methylsulfonyl)-1H-indol-1-yl)pyridin-3-yl)oxy)methyl)piperidine-1-carboxylate]
5 | < 50 nM | CCc1cnc(N2CCC(COc3ccc(-n4ccc5cc(S(C)(=O)=O)ccc54)nc3)CC2)nc1 [Example-6, 1-(5-((1-(5-Ethylpyrimidin-2-yl)piperidin-4-yl)methoxy)pyridin-2-yl)-5-(methylsulfonyl)-1H-indole]
6 | < 50 nM | CCOC(=O)Nc1ccc2c(ccn2-c2ccc(OC3CCN(C(=O)OC(C)(C)C)CC3)cn2)c1 [Example-8, tert-Butyl-4-((6-(5-((ethoxycarbonyl)amino)-1H-indol-1-yl)pyridin-3-yl)oxy)piperidine-1-carboxylate]
7 | < 50 nM | CCOC(=O)Nc1ccc2c(ccn2-c2ccc(OC3CCN(c4ncc(CC)cn4)CC3)cn2)c1 [Example-9, Ethyl(1-(5-((1-(5-ethylpyrimidin-2-yl)piperidin-4-yl)oxy)pyridin-2-yl)-1H-indol-5-yl)carbamate]
8 | < 50 nM | CCc1cnc(N2CCC(Oc3ccc(-n4ccc5cc(S(=O)(=O)CC)ccc54)nc3)CC2)nc1 [Example-11, 1-(5-((1-(5-Ethylpyrimidin-2-yl)piperidin-4-yl)oxy)pyridin-2-yl)-5-(ethylsulfonyl)-1H-indole]
9 | 50 to 250 nM | CCS(=O)(=O)c1ccc2c(ccn2-c2ccc(OC3CCN(CC(C)(C)O)CC3)cn2)c1 [Example-13, 1-(4-((6-(5-(Ethylsulfonyl)-1H-indol-1-yl)pyridin-3-yl)oxy)piperidin-1-yl)-2-methylpropan-2-ol]
10 | < 50 nM | CC(C)(F)CN1CCC(Oc2ccc(-n3ccc4cc(S(C)(=O)=O)ccc43)nc2)CC1 [Example-14, 1-(5-((1-(2-Fluoro-2-methylpropyl)piperidin-4-yl)oxy)pyridin-2-yl)-5-(methylsulfonyl)-1H-indole]
11 | 50 to 250 nM | Cc1noc(N2CCC(Oc3ccc(-n4ccc5cc(S(=O)(=O)C(C)C)ccc54)nc3)CC2)n1 [Example-18, 5-(4-((6-(5-(Isopropylsulfonyl)-1H-indol-1-yl)pyridin-3-yl)oxy)piperidin-1-yl)-3-methyl-1,2,4-oxadiazole]
12 | < 50 nM | CCc1cnc(N2CCC(Nc3ccc(-n4ccc5cc(C(=O)N(C)C)ccc54)nc3)CC2)nc1 [Example-22, 1-(5-((1-(5-Ethylpyrimidin-2-yl)piperidin-4-yl)amino)pyridin-2-yl)-N,N-dimethyl-1H-indole-5-carboxamide]
13 | < 50 nM and 50 to 250 nM | CC(C)CN1CCC(Oc2ccc(-n3ccc4cc(S(C)(=O)=O)ccc43)nc2)CC1 [Example-30, 1-(5-((1-Isobutylpiperidin-4-yl)oxy)pyridin-2-yl)-5-(methylsulfonyl)-1H-indole]
14 | < 50 nM | CC(C)(C)CN1CCC(Oc2ccc(-n3ccc4cc(S(C)(=O)=O)ccc43)nc2)CC1 [Example-35, 5-(Methylsulfonyl)-1-(5-((1-neopentylpiperidin-4-yl)oxy)pyridin-2-yl)-1H-indole]
15 | < 50 nM | CN(C)C(=O)c1ccc2c(ccn2-c2ccc(OC3CCN(C(=O)OC(C)(C)C)CC3)cn2)c1 [Example-39, tert-Butyl-4-((6-(5-(dimethylcarbamoyl)-1H-indol-1-yl)pyridin-3-yl)oxy) piperidine-1-carboxylate]
16 | < 50 nM | CCc1cnc(N2CCC(Oc3ccc(-n4ccc5cc(C(=O)N(C)C)ccc54)nc3)CC2)nc1 [Example-40, 1-(5-((1-(5-Ethylpyrimidin-2-yl)piperidin-4-yl)oxy)pyridin-2-yl)-N,N-dimethyl-1H-indole-5-carboxamide]
17 | 50 to 250 nM | CCc1cnc(N2CCC(OCc3ccc(-n4ccc5cc(S(C)(=O)=O)ccc54)nc3)CC2)nc1 [Example-42, 1-(5-(((1-(5-Ethylpyrimidin-2-yl)piperidin-4-yl)oxy)methyl)pyridin-2-yl)-5-(methylsulfonyl)-1H-indole]
18 | < 50 nM and 50 to 250 nM | CN(C)C(=O)c1ccc2c(ccn2-c2ccc(OCC3CCN(C(=O)OC(C)(C)C)CC3)cn2)c1 [Example-45, tert-butyl 4-(((6-(5-(dimethylcarbamoyl)-1H-indol-1-yl)pyridin-3-yl)oxy)methyl)piperidine-1-carboxylate]
19 | < 50 nM | CC(C)(C)OC(=O)N1CCC(OCc2ccc(N3CCc4cc(S(C)(=O)=O)ccc43)nc2)CC1 [Example-46, tert-Butyl-4-((6-(5-(methylsulfonyl)indolin-1-yl)pyridin-3-yl)methoxy) piperidine-1-carboxylate]
20 | 50 to 250 nM | CC(C)(C)OC(=O)N1CC2COCC(C1)C2Oc1ccc(-n2ccc3cc(S(C)(=O)=O)ccc32)nc1 (stereo not drawn) [Example-48, (syn)-tert-Butyl-9-((6-(5-(methylsulfonyl)-1H-indol-1-yl)pyridin-3-yl)oxy)-3-oxa-7-azabicyclo[3.3.1]nonane-7-carboxylate]
21 | < 50 nM | CC(C)(C)OC(=O)N1CC2COCC(C1)C2Oc1ccc(-n2ccc3cc(S(C)(=O)=O)ccc32)nc1 (stereo not drawn) [Example-49, (anti) tert-Butyl-9-((6-(5-(methylsulfonyl)-1H-indol-1-yl)pyridin-3-yl)oxy)-3-oxa-7-azabicyclo[3.3.1]nonane-7-carboxylate]
22 | < 50 nM | CCc1cnc(N2CC3COCC(C2)C3Oc2ccc(-n3ccc4cc(S(C)(=O)=O)ccc43)nc2)nc1 (stereo not drawn) [Example-51, anti 7-(5-Ethylpyrimidin-2-yl)-9-((6-(5-(methylsulfonyl)-1H-indol-1-yl)pyridin-3-yl)oxy)-3-oxa-7-azabicyclo[3.3.1]nonane]
23 | < 50 nM | CCc1cnc(N2CCC(Oc3ccc(-n4ccc5cc(C(=O)NC6CC6)ccc54)nc3)CC2)nc1 [Example-54, N-Cyclopropyl-1-(5-((1-(5-ethylpyrimidin-2-yl)piperidin-4-yl)oxy)pyridin-2-yl)-1H-indole-5-carboxamide]
24 | < 50 nM | CC(C)C(=O)Nc1ccc2c(ccn2-c2ccc(OC3CCN(C(=O)OC(C)(C)C)CC3)cn2)c1 [Example-56, tert-Butyl-4-((6-(5-isobutyramido-1H-indol-1-yl)pyridin-3-yl)oxy)-piperidine-1-carboxylate]
25 | < 50 nM | CC(C)C(=O)Nc1ccc2c(ccn2-c2ccc(OC3CCN(c4nc(C(C)C)no4)CC3)cn2)c1 [Example-57, N-(1-(5-((1-(3-Isopropyl-1,2,4-oxadiazol-5-yl)piperidin-4-yl)oxy)pyridin-2-yl)-1H-indol-5-yl)isobutyramide]
26 | 250 to 1000 nM | CCc1cnc(N2CCC(Oc3ccc(-n4ccc5cc(C#N)ccc54)nc3)CC2)nc1 [Example-58, 1-(5-((1-(5-Ethylpyrimidin-2-yl)piperidin-4-yl)oxy)pyridin-2-yl)-1H-indole-5-carbonitrile]
27 | 50 to 250 nM | CC(C)NC(=O)c1ccc2c(ccn2-c2ccc(OC3CCN(C(=O)OC(C)(C)C)CC3)cn2)c1 [Example-62, tert-Butyl-4-((6-(5-(isopropylcarbamoyl)-1H-indol-1-yl)pyridin-3-yl)oxy) piperidine-1-carboxylate]
28 | 50 to 250 nM | CNC(=O)c1ccc2c(ccn2-c2ccc(OCC3CCN(C(=O)OC(C)(C)C)CC3)cn2)c1 [Example-66, tert-Butyl-4-(((6-(5-(methylcarbamoyl)-1H-indol-1-yl)pyridin-3-yl)-oxy)methyl)piperidine-1-carboxylate]
29 | 50 to 250 nM | CCc1cnc(N2CCC(COc3ccc(-n4ccc5cc(C(=O)NC)ccc54)nc3)CC2)nc1 [Example-67, 1-(5-((1-(5-Ethylpyrimidin-2-yl)piperidin-4-yl)methoxy)pyridin-2-yl)-N-methyl-1H-indole-5-carboxamide]
